One assay deals with HEK293. As to the kind of experiment: EBV LMP1 TES2 canonical NF-kB signalling blockers – cell-based, HEK293, luciferase, cherry-pick, dose response (AID 588343). To be noted: Homo sapiens. In kind it is functional.
For assay [1], the target named is T1, Corticotropin-releasing factor receptor 2/Corticotropin-releasing factor-binding protein (Homo sapiens, UniProt P24387+Q13324).
T1 sequence (Q13324 whole entry): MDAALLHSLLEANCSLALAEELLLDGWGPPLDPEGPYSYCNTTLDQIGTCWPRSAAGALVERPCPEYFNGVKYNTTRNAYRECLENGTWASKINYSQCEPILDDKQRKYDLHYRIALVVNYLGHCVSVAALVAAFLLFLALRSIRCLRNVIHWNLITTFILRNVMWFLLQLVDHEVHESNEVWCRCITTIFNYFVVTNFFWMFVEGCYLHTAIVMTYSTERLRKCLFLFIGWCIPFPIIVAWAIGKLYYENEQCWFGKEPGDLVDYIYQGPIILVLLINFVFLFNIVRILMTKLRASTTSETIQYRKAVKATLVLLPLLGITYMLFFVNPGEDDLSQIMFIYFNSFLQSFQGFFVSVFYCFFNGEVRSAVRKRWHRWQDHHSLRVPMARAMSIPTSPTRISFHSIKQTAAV
T1 sequence (P24387 whole entry): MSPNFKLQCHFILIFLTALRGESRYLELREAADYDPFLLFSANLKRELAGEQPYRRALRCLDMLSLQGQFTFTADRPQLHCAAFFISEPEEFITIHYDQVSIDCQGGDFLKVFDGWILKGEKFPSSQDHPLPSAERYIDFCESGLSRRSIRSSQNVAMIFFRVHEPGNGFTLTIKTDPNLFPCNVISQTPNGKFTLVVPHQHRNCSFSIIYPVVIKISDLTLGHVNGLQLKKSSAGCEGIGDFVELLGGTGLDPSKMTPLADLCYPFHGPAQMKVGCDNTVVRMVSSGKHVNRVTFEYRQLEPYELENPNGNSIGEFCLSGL
Put plainly: activators of CRF receptor 2 with binding protein – uHTS hits, confirmation (AID 602473). In kind it is functional. As to conditions: read-out: EC50_Mean.

Assay [2] deals with T2, Heat shock factor protein 1 (Mus musculus, UniProt P38532).
T2 sequence (P38532 whole entry): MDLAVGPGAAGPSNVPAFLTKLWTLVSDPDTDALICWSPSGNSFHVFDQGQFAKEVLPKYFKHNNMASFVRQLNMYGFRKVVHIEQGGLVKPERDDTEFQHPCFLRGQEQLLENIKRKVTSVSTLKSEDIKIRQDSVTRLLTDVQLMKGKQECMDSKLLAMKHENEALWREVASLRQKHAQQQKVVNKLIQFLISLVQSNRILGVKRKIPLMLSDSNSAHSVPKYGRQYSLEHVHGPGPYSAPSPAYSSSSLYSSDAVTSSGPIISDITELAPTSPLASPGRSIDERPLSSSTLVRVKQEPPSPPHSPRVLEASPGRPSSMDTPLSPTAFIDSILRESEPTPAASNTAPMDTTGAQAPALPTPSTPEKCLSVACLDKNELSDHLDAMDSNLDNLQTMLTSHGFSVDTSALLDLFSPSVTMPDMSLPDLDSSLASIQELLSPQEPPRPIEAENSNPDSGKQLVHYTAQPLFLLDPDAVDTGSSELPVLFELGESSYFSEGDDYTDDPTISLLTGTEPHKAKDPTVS
As to the kind of experiment: decrease of HSF1-responsive luciferase luminescence – cell-based, NIH3T3, dose retest, confirmation (AID 2382).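 Also: NIH3T3 fibroblasts with HSF1-driven luciferase reporter stressed by proteasome inhibitor MG132; luminescence from HSF1-driven luciferase expression after 8 hours of MG132 stress.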 Format: functional.

The nature of assay [3]: bead-based luminescence quenchers, dual-tagged ARNT – biochemical, AlphaScreen, cherry-pick, artefact control for ARNT-TACC3 interaction inhibitor project, dose response (AID 651705).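 Also: AlphaScreen bead proximity signal that flags compounds interfering with the detection technology; potency reflects signal decrease which marks the compound as an assay artifact.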 In kind it is functional. In general terms: In Alpha technology, singlet oxygen from a donor bead excites a nearby acceptor bead.
Assay [4] has as its target T3, Eukaryotic translation initiation factor 2-alpha kinase 3 (Homo sapiens, UniProt Q9NZJ5).
T3 sequence (Q9NZJ5 whole entry): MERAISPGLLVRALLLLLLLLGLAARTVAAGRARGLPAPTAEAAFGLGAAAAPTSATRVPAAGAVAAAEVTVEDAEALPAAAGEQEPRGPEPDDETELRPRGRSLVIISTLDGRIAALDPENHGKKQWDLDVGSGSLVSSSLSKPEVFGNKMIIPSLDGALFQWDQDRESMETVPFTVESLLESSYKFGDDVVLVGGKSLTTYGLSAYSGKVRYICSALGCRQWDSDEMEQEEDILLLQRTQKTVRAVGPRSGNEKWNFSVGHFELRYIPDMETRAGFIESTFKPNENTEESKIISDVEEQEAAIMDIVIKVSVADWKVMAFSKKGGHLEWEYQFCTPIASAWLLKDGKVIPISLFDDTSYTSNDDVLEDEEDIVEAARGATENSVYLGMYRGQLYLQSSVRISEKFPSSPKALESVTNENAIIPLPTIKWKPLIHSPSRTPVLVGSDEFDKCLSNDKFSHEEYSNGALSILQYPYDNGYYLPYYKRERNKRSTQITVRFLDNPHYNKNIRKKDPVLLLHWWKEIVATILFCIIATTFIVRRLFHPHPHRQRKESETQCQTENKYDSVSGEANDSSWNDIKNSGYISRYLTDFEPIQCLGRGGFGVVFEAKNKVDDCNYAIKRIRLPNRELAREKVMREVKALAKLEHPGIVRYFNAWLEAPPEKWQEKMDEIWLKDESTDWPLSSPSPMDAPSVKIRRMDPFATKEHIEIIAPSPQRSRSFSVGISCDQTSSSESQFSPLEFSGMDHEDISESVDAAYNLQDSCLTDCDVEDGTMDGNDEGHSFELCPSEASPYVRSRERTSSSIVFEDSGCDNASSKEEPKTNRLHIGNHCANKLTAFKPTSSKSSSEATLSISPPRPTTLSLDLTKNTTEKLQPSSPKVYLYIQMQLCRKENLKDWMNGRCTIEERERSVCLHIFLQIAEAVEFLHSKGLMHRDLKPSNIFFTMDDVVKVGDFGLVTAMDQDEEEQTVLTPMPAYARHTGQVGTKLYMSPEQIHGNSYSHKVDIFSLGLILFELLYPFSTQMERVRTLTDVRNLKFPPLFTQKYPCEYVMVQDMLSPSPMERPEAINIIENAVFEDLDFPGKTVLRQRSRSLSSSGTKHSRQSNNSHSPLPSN
As to the kind of experiment: Dose response cell-based high-throughput screening assay to measure PERK inhibition. [Related pubchem assays: 1416 ]. In kind it is functional.

Another assay has as its target T4, Protein RecA (Mycobacterium tuberculosis, UniProt P9WHJ3).
T4 sequence (P9WHJ3 whole entry): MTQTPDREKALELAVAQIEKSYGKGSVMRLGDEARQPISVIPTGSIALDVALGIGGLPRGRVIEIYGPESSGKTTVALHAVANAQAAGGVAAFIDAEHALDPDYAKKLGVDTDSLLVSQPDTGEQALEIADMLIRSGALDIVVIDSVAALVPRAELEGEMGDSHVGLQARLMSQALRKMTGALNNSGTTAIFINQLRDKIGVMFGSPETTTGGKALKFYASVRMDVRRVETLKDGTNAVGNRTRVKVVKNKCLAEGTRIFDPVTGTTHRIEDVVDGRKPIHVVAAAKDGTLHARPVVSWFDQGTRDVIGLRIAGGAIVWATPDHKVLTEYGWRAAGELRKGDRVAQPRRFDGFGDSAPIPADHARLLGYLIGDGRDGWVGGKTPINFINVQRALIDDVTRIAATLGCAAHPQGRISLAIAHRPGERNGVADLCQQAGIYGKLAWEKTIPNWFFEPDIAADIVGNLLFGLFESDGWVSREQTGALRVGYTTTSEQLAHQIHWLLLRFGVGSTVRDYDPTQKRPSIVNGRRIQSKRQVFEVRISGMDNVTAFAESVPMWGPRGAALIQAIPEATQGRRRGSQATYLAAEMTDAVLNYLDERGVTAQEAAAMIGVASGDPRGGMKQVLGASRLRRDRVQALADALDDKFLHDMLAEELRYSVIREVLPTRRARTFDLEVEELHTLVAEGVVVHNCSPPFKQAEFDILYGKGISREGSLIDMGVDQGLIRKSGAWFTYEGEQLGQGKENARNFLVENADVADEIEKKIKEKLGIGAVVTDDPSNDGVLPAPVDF
As to the kind of experiment: Fluorescence Cell-Free Homogeneous Dose Retest to Identify Inhibitors of RecA-Intein Splicing Activity. [Related pubchem assays (depositor defined):AID2097, AID2223, AID489010, AID492950]. In kind it is functional.

In assay [5] the target is T3, Eukaryotic translation initiation factor 2-alpha kinase 3. Put plainly: Counterscreen assay for PERK inhibitors: Dose response cell-based high throughput screening assay to measure inhibition of PERK at 6 hours. [Related pubchem assays: 1522, 1416 ]. Format: functional.
In assay [6] the target is T5, Replicative DNA helicase DnaB (Mycobacterium tuberculosis, UniProt P9WMR3).
T5 sequence (P9WMR3 whole entry): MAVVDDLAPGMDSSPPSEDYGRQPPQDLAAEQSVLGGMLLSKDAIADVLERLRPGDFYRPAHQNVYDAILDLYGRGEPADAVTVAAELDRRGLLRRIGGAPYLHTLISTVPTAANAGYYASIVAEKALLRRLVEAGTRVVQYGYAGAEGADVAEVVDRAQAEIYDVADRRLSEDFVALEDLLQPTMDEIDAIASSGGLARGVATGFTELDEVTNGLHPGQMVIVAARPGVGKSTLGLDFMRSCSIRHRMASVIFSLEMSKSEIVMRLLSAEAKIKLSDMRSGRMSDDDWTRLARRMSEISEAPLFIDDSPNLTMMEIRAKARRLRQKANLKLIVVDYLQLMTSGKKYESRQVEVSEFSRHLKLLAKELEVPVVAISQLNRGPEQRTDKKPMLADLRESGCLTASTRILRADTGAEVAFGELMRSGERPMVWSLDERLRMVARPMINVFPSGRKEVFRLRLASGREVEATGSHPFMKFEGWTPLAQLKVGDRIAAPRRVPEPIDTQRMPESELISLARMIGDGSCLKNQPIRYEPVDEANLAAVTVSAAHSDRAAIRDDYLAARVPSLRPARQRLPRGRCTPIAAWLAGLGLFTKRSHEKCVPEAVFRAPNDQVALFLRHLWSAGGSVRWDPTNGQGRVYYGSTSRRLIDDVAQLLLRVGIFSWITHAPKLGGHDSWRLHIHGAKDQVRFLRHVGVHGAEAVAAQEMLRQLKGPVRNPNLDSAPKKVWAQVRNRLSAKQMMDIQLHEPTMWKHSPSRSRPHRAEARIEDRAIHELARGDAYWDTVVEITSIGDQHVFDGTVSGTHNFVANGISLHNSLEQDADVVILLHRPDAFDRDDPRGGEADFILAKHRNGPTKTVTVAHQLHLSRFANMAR
As to the kind of experiment: DnaB intein splicing inhibitors, dose response, biochemical, cell-free fluorescence (AID 449749). Format: functional.

The target of the next assay is Nonstructural protein 1 (Influenza A virus, UniProt Q194T2). In kind it is functional, Influenza A virus (A/California/07/2009(H1N1)).
The subject of another assay is P388/ADR. Put plainly: cells. To be noted: Mus musculus. Format: functional.
Another assay concerns P388. Put plainly: cells. In kind it is functional. To be noted: Mus musculus.
In a further assay the test system is SN12K1. As to the kind of experiment: cells. Format: functional. To be noted: Homo sapiens.

The source of these data is ChEMBL document CHEMBL1201862, “PubChem BioAssay data set” (2004).

The structures appear in SMILES notation. The source made the active and inactive calls.

Chain of Nonstructural protein 1 (Q194T2 whole entry): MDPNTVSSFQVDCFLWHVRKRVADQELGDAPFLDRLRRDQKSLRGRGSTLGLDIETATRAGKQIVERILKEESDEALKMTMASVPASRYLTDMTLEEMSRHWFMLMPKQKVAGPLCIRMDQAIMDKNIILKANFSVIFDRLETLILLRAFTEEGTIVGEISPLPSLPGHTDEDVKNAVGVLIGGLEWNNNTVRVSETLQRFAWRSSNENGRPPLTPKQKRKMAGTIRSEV

As usually defined, the AC50 is the midpoint of the concentration-response curve, whichever way the signal moves. As for `CCN1C(=O)C(=CNc2ccc(N3CCOCC3)c(Br)c2)C(=O)N(CC)C1=S`, in the assay with HEK293, the AC50 is > 350 µM (inactive). The EC50 in [1] is > 53 µM (inactive); in assay [2], > 195 µM (not active).

For `Cc1ccccc1-n1nc(C)c2cc(C(=O)NC3CC3)sc21`, the AC50 in the assay on HEK293 is 196 µM (active).

`N#CC1=C(N)Oc2c(ccc3cccnc23)C1c1ccncc1` (stereo not given): the AC50 in assay [3] is 99.4 µM (active).

Turning to `CN1N=C(C(C)(C)C)CC1=O`, the figures for the EC50 (in [4]; at Protein RecA; in assay [5]) were > 55.7 µM (not active), 2.5 µM (active) and > 55.7 µM (not active), respectively. In addition, in [6], the AC50 is 9.6 µM (active).

The term IC50 denotes the point on the concentration scale where inhibition reaches its midpoint. For the compound `Cc1cc(O)nc(NN=Cc2cc(Br)ccc2O)n1`, the AC50 with HEK293 was 5.26 µM (active). Also, on Nonstructural protein 1, the IC50 was 12.2 µM (active).

Turning to `Cc1ccc(C(=O)Nc2cccc(C(F)(F)F)c2)cc1Nc1[nH]cnc2ncnc1-2`, the AC50 with HEK293 was 7.93 µM (active).

In general, GI50 refers to the concentration that inhibits growth by half. As to `C[S+]([O-])c1cc(=O)c2ccccc2s1` (stereo not given), the GI50 is 2.66 µM (inactive) in the assay on P388/ADR, 1.83 µM (inactive) with P388 and 17.8 µM (inactive) in the assay on SN12K1.

As for `CC(=O)OCC1OC(n2cc(F)c(=O)[nH]c2=O)C(N)C(OC(C)=O)C1OC(C)=O` (stereo not given), the GI50 in the assay with P388/ADR, in the assay on P388 and with SN12K1 was > 100 µM (inactive) each time.

On to `O=C1CSc2sc(=S)sc2S1`, for which the figures for the GI50 in the assay on P388/ADR, with P388 and in the assay with SN12K1 were 27.7 µM (inactive), 31.2 µM (inactive) and > 100 µM (inactive), respectively.

With `Cc1[nH]c(=O)[nH]c(=O)c1/C=C/C(=O)NC(CO)C[S+]([O-])C[S+](C)[O-]` (stereo not given), the figures for the GI50 in the assay with P388/ADR, with P388 and in the assay on SN12K1 were 23.2 µM (inactive), 19.4 µM (inactive) and 9.38 µM (inactive), respectively.

With `O=C1Nc2ccccc2Nc2ccncc21`, the GI50 in the assay on P388/ADR was > 31.6 µM (inactive); with P388 it was > 100 µM (inactive); in the assay with SN12K1, > 100 µM (inactive).

Regarding `C/C=C1\NC(=O)[C@H]2CSSCCC=C[C@H](CC(=O)N[C@H](C(C)C)C(=O)N2)OC(=O)[C@H](C(C)C)NC1=O`, the GI50 with P388/ADR was < 0.0241 µM (active); with P388 it was < 0.01 µM (active); in the assay with SN12K1 it was < 0.01 µM (active).
